Patent US20240316079A1, “USE OF AKR1C3-ACTIVATED COMPOUND” (OBI PHARMA, INC., priority 2021, published 2024)

Key:
GA6201 PDX = experiment: Gastric cancer PDX model GA6201; assay type: in vivo, mice
Protocol: Anti-tumor activity of 3424 in PDX models was assessed at CrownBio Bioscience (Beijing, China) Inc. using female BALB/c nude mice (6-7 weeks old, Beijing Anikeeper Biotech Co., Ltd, Beijing, China). Tumor fragments (PA1280, GA6201, LU2057 and LU2505) from stock mice inoculated with selected primary human cancer tissues (pancreatic, gastric cancer, and lung) were harvested and used for inoculation into BALB/c nude mice. Each mouse was inoculated subcutaneously for tumor development. Mice were allocated randomly into experimental groups when the average tumor size reached ˜100 mm^3) by using StudyDirector™ Ver 3.1.399.19 (Studylog Systems, Inc., S. San Francisco, CA, USA). Prodrug 3424 was administered IV at the indicated doses with a regimen of Q7D×3. Each group consisted of 5-6 mice. The grouping day was denoted as Day 0. Prodrug 3424 was administrated to the tumor-bearing mice from Day 0 through Days as indicated for each study.

NCI-H23 = experiment: In vitro proliferation assay, NSCLC cell line NCI-H23; assay type: cell-based; settings: Homo sapiens, 72 hours of drug exposure, read-out: 3424 IC50
Protocol: (§1) IC50 was calculated as described above.

NCIH2106 = experiment: In vitro proliferation assay, NSCLC cell line NCIH2106; assay type: cell-based; settings: Homo sapiens, 72 hours of drug exposure, read-out: 3424 IC50
Protocol: as §1

## C[C@H](OP(=O)(N1CC1)N1CC1)c1ccc([N+](=O)[O-])c(Oc2cccc(C(=O)N(C)C)c2)c1 [Compound 3424, (S)-1-(3-(3-N,N-dimethylaminocarbonyl)phenoxyl-4-mtrophenyl)-1-ethyl-N,N′-bis(ethylene)phosphoramidate]
GA6201 PDX; 3424 5 mg/kg i.v. Q7D × 3
  TGI: 110%
GA6201 PDX; 3424 5 mg/kg, at the end of the study
  mice remaining tumor free: 60%
GA6201 PDX; GA6201, all tested doses
  tolerability / body weight loss: no body weight loss
NCI-H23
  IC50: > 1000 nM
NCIH2106
  IC50: > 1000 nM
